Measured values taken from ChEMBL document CHEMBL1201862, “PubChem BioAssay data set” (2004).
Activity calls are given as the source filed them.

How the values were obtained:
[1] = molecular target: Botulinum neurotoxin type F (Clostridium botulinum, UniProt P30996); test: High-throughput multiplex microsphere dose response for inhibitors of toxin protease, specifically Botulinum neurotoxin light chain F protease, compounds from Cherry Pick 02.; assay type: functional; conditions: read-out: EC50_MICROM
Sequence of Botulinum neurotoxin type F (P30996 1-436 limits assumed): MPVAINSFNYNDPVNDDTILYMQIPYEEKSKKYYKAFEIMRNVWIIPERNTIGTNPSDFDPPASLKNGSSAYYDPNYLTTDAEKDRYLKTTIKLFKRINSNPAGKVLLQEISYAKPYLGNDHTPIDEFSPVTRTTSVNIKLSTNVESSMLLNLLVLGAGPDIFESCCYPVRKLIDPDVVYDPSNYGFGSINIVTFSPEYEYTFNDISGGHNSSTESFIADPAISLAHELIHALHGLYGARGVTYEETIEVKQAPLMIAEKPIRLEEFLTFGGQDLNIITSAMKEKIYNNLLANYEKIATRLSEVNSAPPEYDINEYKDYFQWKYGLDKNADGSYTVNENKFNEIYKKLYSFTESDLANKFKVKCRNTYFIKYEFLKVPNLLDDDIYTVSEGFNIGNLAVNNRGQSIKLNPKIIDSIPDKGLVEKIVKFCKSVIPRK

Beta-lactamase [2] = molecular target: Beta-lactamase (Salmonella choleraesuis (strain SC-B67), UniProt Q5J463); test: Epi-absorbance-based counterscreen for selective VIM-2 inhibitors: dose response biochemical high throughput screening assay to identify inhibitors of TEM-1 serine-beta-lactamase.
Sequence of Beta-lactamase (Salmonella choleraesuis (strain SC-B67), UniProt Q5J463) (Q5J463 whole entry): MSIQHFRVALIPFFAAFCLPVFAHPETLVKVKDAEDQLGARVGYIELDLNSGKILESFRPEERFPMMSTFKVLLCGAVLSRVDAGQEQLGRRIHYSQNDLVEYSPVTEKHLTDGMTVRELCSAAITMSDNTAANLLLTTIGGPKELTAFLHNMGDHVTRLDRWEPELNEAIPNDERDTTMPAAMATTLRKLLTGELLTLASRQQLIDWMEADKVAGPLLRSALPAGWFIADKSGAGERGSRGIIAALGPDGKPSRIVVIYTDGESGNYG

Beta Lactamase [3] = molecular target: T1, Beta Lactamase (Pseudomonas aeruginosa, UniProt Q932Y6); test: VIM-2 metallo-beta-lactamase inhibitor potency, dose response, biochemical, epi-absorbance readout, selective inhibitors (AID 1919)
T1 sequence (Q932Y6 whole entry): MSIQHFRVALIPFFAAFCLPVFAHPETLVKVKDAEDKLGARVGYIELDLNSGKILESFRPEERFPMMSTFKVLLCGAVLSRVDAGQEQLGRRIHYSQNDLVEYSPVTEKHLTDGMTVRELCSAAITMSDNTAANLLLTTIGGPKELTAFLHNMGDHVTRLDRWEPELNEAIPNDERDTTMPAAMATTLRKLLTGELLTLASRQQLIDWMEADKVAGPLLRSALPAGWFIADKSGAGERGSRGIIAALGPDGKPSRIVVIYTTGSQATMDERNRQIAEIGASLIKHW

Beta-lactamase [4] = molecular target: T2, Beta-lactamase (Pseudomonas aeruginosa, UniProt Q79MP6); test: […] counterscreen for selective VIM-2 inhibitors: dose response biochemical high throughput screening assay to identify inhibitors of IMP-1 metallo-beta-lactamase.
T2 sequence (Q79MP6 whole entry): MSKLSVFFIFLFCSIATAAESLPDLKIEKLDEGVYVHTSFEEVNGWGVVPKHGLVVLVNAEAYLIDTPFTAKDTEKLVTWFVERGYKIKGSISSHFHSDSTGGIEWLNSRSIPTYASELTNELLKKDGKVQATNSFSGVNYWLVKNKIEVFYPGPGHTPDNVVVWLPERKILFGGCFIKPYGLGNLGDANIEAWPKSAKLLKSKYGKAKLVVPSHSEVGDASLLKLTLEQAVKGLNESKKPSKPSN

Beta Lactamase [5] = molecular target: T1, Beta Lactamase; test: VIM-2 inhibitor FRET-based artefact check, dose response, artefact control for selective VIM-2 inhibitor project, biochemical, FRET readout, CCF2 substrate (AID 1926)
Beta-lactamase [6] = molecular target: T2, Beta-lactamase; test: IMP-1 metallo-beta-lactamase inhibitors, dose response, selectivity assay for VIM-2 inhibitor project, biochemical, epi-absorbance (AID 1920)
Protein S100-A4 = Protein S100-A4 (Homo sapiens, UniProt P26447); test: S100A4-myosin IIA binding inhibitor potency, dose response, biochemical, fluorescence polarization, cherry-picked hits (AID 687001); assay type: functional
Sequence of Protein S100-A4 (P26447 whole entry): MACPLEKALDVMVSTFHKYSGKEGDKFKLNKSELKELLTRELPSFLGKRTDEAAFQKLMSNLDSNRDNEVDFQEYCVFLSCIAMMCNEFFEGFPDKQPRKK

[7] = molecular target: T3, Replicative DNA helicase DnaB (Mycobacterium tuberculosis, UniProt P9WMR3); test: DnaB intein splicing inhibitors, dose response, biochemical, cell-free fluorescence (AID 449749); assay type: functional
T3 sequence (P9WMR3 whole entry): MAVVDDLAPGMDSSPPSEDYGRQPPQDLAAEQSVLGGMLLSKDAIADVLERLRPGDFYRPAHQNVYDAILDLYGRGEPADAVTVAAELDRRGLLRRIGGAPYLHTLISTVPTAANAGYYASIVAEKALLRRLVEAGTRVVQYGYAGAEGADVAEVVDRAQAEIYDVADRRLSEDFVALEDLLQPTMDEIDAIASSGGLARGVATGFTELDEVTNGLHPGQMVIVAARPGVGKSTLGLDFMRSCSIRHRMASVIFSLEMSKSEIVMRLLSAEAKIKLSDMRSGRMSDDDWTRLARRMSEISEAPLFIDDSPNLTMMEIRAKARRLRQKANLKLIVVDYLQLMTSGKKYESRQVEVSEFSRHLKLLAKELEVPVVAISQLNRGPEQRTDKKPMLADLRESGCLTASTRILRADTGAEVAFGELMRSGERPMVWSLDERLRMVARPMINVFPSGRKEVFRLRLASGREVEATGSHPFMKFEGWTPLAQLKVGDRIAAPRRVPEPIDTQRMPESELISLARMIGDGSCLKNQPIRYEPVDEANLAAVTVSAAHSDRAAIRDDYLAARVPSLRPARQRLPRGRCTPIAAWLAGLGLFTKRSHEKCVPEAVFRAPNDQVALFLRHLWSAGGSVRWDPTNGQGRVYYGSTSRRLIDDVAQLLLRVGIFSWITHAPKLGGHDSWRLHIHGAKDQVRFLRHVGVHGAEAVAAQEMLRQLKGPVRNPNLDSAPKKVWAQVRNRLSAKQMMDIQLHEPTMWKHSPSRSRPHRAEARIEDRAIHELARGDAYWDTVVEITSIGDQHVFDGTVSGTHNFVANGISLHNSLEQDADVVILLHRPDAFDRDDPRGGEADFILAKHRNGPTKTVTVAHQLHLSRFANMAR

Protein RecA = molecular target: T4, Protein RecA (Mycobacterium tuberculosis, UniProt P9WHJ3); test: Fluorescence Cell-Free Homogeneous Dose Retest to Identify Inhibitors of RecA-Intein Splicing Activity. [Related pubchem assays (depositor defined):AID2097, AID2223, AID489010, AID492950]; assay type: functional
T4 sequence (P9WHJ3 whole entry): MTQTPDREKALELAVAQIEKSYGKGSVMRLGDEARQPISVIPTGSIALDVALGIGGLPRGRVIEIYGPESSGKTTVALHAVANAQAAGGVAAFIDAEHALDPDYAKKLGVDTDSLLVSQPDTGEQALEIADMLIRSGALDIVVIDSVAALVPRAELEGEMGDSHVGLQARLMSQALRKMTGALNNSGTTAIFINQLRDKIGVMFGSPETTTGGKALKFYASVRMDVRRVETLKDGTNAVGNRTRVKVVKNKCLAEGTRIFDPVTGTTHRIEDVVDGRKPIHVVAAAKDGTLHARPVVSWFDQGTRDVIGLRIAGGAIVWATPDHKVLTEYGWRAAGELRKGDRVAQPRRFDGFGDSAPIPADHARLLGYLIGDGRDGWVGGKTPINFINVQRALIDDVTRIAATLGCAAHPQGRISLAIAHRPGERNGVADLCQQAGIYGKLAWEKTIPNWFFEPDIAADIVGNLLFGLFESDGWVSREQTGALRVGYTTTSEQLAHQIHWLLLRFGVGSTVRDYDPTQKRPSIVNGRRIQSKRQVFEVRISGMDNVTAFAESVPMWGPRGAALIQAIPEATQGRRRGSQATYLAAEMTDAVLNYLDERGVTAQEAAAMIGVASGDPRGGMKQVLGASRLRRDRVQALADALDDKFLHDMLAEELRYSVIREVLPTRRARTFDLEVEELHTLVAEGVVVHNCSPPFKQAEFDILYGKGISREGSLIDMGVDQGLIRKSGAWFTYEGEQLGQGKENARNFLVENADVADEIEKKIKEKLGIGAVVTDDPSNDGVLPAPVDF

[8] = molecular target: T5, Sentrin-specific protease 8 (Homo sapiens, UniProt Q96LD8); assay type: functional
T5 sequence (Q96LD8 whole entry): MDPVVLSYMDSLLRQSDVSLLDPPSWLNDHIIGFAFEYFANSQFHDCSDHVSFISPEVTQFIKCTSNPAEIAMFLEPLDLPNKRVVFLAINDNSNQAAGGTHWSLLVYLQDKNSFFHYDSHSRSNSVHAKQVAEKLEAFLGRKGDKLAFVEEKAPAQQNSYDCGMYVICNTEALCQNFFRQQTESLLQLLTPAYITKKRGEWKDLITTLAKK

Caspase-3 = molecular target: T6, Caspase-3 (Homo sapiens, UniProt P42574); test: Dose-response confirmation of uHTS inhibitor hits of Sentrin-Specific Protease 8 in a Caspase-3 Fluorescence assay.; assay type: functional
T6 sequence (P42574 whole entry): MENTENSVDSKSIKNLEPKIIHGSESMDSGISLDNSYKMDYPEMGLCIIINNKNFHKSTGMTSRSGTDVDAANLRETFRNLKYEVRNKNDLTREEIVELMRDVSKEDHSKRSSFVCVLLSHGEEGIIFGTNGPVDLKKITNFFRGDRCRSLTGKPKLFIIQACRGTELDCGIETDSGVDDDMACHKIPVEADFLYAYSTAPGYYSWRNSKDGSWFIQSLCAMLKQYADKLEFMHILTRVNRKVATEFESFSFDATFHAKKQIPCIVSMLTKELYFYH

[9] = molecular target: T5, Sentrin-specific protease 8; assay type: functional; remark: listed apart in the source
Vero = Vero cell cytotoxicity, cytotoxicity control for flavivirus capping enzyme inhibitors (AID 588742); assay type: functional; conditions: Chlorocebus sabaeus
[10] = Late stage assay provider results from the probe development effort to identify inhibitors of the Plasmodium falciparum M17 Leucine Aminopeptidase (M17LAP): radiolabel-based cell-based dose response assay to identify compounds that inhibit P. falciparum growth in RBCs Set 2.; assay type: functional
[11] = T. cruzi intracellular amastigote growth inhibition, dose response, imaging, CA-I/72 strain, bovine embryo skeletal muscle, dry powder (AID 651885); assay type: functional, cell-based

## COc1cccc(C(=O)OCC(=O)c2c[nH]c3ccccc23)c1O
[1]
  EC50: > 20 µM (inactive)

## O=C(C1=C(O)C(=O)N(Cc2cccnc2)C1c1ccccn1)c1cccs1 (stereo not given)
Beta-lactamase [2]
  IC50: > 59.6 µM (inactive)
Beta Lactamase [3]
  IC50: 13.2 µM (inactive)
Beta-lactamase [4]
  IC50: > 59.6 µM (inactive)
Beta Lactamase [5]
  IC50: 4.83 µM (active)
Beta-lactamase [6]
  IC50: > 59.6 µM (inactive)

## CN(C)c1ccc(C=Cc2nccc3ccccc23)cc1
Protein S100-A4
  AC50: 0.774 µM (active)

## COc1ccc(/C=N/NC(=O)c2nn(-c3ccc(Cl)cc3)c(=O)c3c(N)scc23)cc1
[7]
  AC50: > 380 µM (inactive)
Protein RecA
  EC50: 4.62 µM (active)
[8]
  IC50: 2.03 µM (active)
Caspase-3
  IC50: 11.9 µM (active)
[9]
  IC50: 0.967 µM (active)
Vero
  CC50: 22 µM (active)

## CCCCOc1ccc(CN(O)C(=O)c2ccccc2)cc1
[10]
  IC50: 13.6 µM (inactive)

## CNC[C@H]1Oc2c(NC(=O)c3ccccc3)cccc2C(=O)N(C(C)C)C[C@@H]1C
[11]
  IC50: > 20 µM (inactive)
